# Experimental data as given in BindingDB's records for PubMed 7562491 (Zeneca Pharmaceuticals, 1995).
# Several values for one entry are separate records, joined by “and”; a condition that tells them apart may be missing. Identical values can stand only once.
# Key:
# Substance-K receptor [1] = target: T1, Substance-K receptor (Homo sapiens, UniProt P21452)
# T1 sequence (P21452 whole entry): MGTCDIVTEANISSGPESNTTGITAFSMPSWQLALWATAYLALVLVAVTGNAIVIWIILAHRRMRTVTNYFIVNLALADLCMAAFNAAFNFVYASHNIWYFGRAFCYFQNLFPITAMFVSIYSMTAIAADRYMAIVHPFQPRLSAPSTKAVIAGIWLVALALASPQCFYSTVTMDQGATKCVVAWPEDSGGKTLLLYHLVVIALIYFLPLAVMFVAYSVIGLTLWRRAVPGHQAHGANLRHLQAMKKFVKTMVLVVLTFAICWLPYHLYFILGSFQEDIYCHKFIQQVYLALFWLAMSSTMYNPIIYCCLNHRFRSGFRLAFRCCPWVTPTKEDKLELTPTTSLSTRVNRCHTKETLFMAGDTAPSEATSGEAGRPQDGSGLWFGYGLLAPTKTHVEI
# Substance-P receptor = Substance-P receptor (Cavia porcellus, UniProt P30547)
# Sequence of Substance-P receptor (P30547 whole entry): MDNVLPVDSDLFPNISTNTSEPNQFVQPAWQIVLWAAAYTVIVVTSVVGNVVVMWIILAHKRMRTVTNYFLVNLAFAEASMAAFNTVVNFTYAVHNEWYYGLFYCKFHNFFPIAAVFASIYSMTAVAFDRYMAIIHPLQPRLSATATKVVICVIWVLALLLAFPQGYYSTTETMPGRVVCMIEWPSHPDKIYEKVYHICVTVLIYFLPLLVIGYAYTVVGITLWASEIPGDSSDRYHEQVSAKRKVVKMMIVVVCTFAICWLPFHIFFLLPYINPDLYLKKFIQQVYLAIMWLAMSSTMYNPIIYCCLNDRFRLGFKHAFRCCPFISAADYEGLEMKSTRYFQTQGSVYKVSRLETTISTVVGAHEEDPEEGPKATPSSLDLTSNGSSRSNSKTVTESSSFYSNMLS
# Substance-K receptor [2] = target: T2, Substance-K receptor (Mesocricetus auratus, UniProt P51144)
# T2 sequence (P51144 whole entry): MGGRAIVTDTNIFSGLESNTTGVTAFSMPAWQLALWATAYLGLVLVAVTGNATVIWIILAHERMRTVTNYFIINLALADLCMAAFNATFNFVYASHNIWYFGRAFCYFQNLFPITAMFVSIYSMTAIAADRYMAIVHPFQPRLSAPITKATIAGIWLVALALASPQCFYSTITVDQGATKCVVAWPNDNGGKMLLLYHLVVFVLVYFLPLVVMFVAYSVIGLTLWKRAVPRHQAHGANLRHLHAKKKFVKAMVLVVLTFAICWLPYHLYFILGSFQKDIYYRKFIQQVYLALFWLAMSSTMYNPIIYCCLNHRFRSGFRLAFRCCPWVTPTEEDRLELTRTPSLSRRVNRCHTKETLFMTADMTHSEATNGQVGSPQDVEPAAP
Ki (Substance-K receptor [1]) [nM],Ki (Substance-P receptor) [nM],Ki (Substance-K receptor [2]),SMILES
105,9770,2.2 nM and 2 nM,"CC(N=O)C(=O)N1CCN(c2nc(Nc3ccc(Cl)cc3)c3c(n2)C(=O)N(C(C)C)C3)CC1 (configuration not stated) [ZM253,270]"
188,–,18 nM and 17 nM,CC(C)N1Cc2c(Nc3ccc(Cl)cc3)nc(N3CCN(C(=O)Cc4[nH]c(=O)[nH]c4O)CC3)nc2C1=O [COMPOUND I]
187,–,41 nM and 39 nM,O=C1c2nc(N3CCOCC3)nc(Nc3ccc(Cl)cc3)c2CN1CCN1CCOCC1 [COMPOUND II]
